Reference: publication PMC8233136, “Monomeric bile acids modulate the ATPase activity of detergent-solubilized ABCB4/MDR3” (Journal of Lipid Research, 2021)
“And” between values parts separate entries of the source, which are not always exact repeats. Equal entries are not always repeated.

Legend:
human ABCB4 [1] = molecular target: T1, human ABCB4 (Homo sapiens, UniProt P21439); assay: ATP hydrolysis (malachite green) of detergent-solubilized, purified ABCB4: modulation of basal ATPase activity; format: biochemical; conditions: for Slope: Hill coefficient of allosteric sigmoidal fit of ATPase stimulation; for EC50: stimulation of basal ATPase activity, allosteric sigmoidal fit; for EC50 / Emax / Concentration at which maximal stimulation (plateau) of ATPase activity is reached / Max. Stimulation (%): 0-1,000 μM; for Emax / Max. Stimulation (%): basal ABCB4 ATPase activity set to 0%; for Concentration at which maximal stimulation (plateau) of ATPase activity is reached: basal ATPase activity
T1 construct: made in house; host or cells: Pichia pastoris (chromosomally integrated)
Experimental: (§1) The sodium salts of conjugated and unconjugated bile acids were dissolved in double-distilled water (ddH2O) or 100% DMSO at a concentration of 100 mM. While glyco-/tauro-/cholic acid (G/T/CA), glyco-/tauro-/chenodeoxycholic acid (G/T/CDCA) were dissolved in ddH2O water, glyco-/tauro-/deoxycholic acid (G/T/DCA), glyco/-tauro-/ursodeoxycholic acid (G/T/UDCA) as wells as Nor-UDCA and taurolithocholic acid (TLCA) were dissolved in DMSO. […] Modulation of the ATP hydrolysis by bile acid was determined in a concentration-dependent manner from 0 to 1,000 μM bile acids.
(§2) Analysis of the ATP activity of ABCB4 was performed by determining the amount of released, free inorganic orthophosphate by the malachite green assay ([53], [54], [60]) with minor modifications. The assay was performed in a total volume of 100 μl consisting of reaction buffer (50 mM Tris HCl, pH 7.4 at 37°C, 100 mM NaCl) supplemented with the 2.5 × cmc of FC-16 and 10 mM MgCl2. For determining the effect of DOPC, different bile acids or combinations thereof, 1–5 μL of the corresponding stock solutions (see lipid and bile acid preparation) were added. Five micrograms of ABCB4 or the BODIPY®-labeled sample was used in every reaction sample. Reaction was started by addition of ATP (5 mM f.c.) and performed for 40 min at 37°C. After 0 and 40 min, the reaction was stopped by transferring 25 μl of the reaction mixture into a 96-well plate containing 175 μl of 20 mM ice-cold sulfuric acid. Additionally, a phosphate standard with concentrations raging from 0 to 500 μM was used. Subsequently, inorganic phosphate was stained by adding 50 μl of dye (0.096% (w/v) malachite green, 1.48% (w/v) ammonium molybdate, 0.173% (w/v) Tween-20, and […] sulfuric acid). After incubation for 15 min, the absorption at 595 nm was measured (iMark™ Microplate Reader, BioRad), and the concentrations of phosphate release were calculated based on the slope of the line calculated based on the phosphate standards.
(§3) Basal ATPase activity of ABCB4 was set to 0% and the effect of supplements was calculated as % stimulation or % inhibition of the basal activity, respectively. For determination of kinetic parameters, bile acid concentration was varied and analyzed according to an allosteric sigmoidal fit (Equation 1):(1) v=vmax∗[S]^h/EC50h+[S]^h
Here, v describes the stimulation (%), vmax is the maximal stimulation (%), EC50 represents the half maximal effective concentration, S is the substrate concentration, and h is the Hill coefficient
In case of inhibition, the reduction (%) was plotted against the bile acid concentration and data were analyzed using Equation 2:(2) y=ymin+(ymax−ymin)/1+10^((logIC50−x)∗slope)
Here, ymax is the smallest, and ymin is the highest amount of inhibition, respectively, and x represents the concentration of the inhibitor. The IC50 value is defined as the concentration necessary to obtain 50% inhibition.
In case of both substrate stimulations, followed by substrate inhibition after maximal stimulation was reached, the modulation (%) was plotted against the substrate concertation and data was analyzed using by two fits: First part (stimulation) was as usually fitted using Equation 1. The second part (substrate inhibition) was analyzed by Equation 3 starting at the last point of the plateau:(3) y=ymin+[…]/(1+x/IC50)
Here, ymax is the highest value of the plateau after stimulation is reached, while ymin is the smallest value of y after maximal stimulation was reached.

human ABCB4 [2] = molecular target: T1, human ABCB4; assay: ATP hydrolysis (malachite green) of purified ABCB4 in the presence of 300 μM DOPC (with or without cholesterol); format: biochemical; conditions: for activity at 1000 µM / Relative ATPase activity in the presence of 300 μM DOPC: 1,000 μM bile acid/detergent/BAM + 300 μM DOPC; for activity at 1000 µM: read-out: Relative ATPase activity in the presence of 300 μM DOPC; for Decrease of DOPC-stimulated ATPase activity: 1,000 μM + 300 μM DOPC, relative to DOPC alone
Experimental: A sample of purified ABCB4 was incubated with 10-fold molar excess of BODIPY® FL maleimide (BODIPY® FL N-(2-aminoethyl)maleimide, Molecular Probes) at 22°C for 20 min. The reaction was quenched after 20 min by addition of a 20-fold molar excess of dithiothreitol (DTT) at 22°C for 10 min. Qualitative labeling efficiency was analyzed by visualizing a sample after SDS-PAGE by UV excitation.
DOPC was dissolved in chloroform, the solvent was evaporated, and the dried lipid sample was redissolved in ATP hydrolysis reaction buffer (50 mM Tris HCl, pH 7.4 at 37°C, 100 mM NaCl) at a concentration of 25.4 mM following the protocol of Geertsma et al. ([59]). Prior to the addition of the DOPC sample to the ATP hydrolysis assay, it was diluted to 5 mM, sonicated until a clear solution was obtained, and subsequently used at a final concentration of 300 μM. Since chloroform is not suitable for the later ATPase assay and cholesterol at higher concentration is insoluble in water and nearly all solvents, a molar mixture of cholesterol and DOPC was used. This mixture was obtained by adding the required molar ratio of cholesterol to always the same amount of dried DOPC. Afterward, the mixture was treated identical to DOPC only as described above resulting in a final concentration (f.c.) of 300 μM DOPC with 0–1,000 μM cholesterol in the ATPase assay.
as §1, §2, §3

[3] = Critical micelle concentration by Hoechst 33342 fluorescence in ATPase reaction buffer; format: physicochemical; conditions: 50 mM Tris-HCl pH 7.5, 100 mM NaCl, 37°C; no FC-16, MgCl2 or ATP
Experimental: CMC values were determined as described ([61]). […] 96-well plates suitable for fluorescence spectroscopy (Greiner Bio-One, FIA plate, black, flat bottom, medium binding) were used. […] CMCs of the bile acids were determined in ATPase reaction buffer (50 mM Tris-HCl, pH 7.5 (at 37°C), 100 mM NaCl) containing no FC-16, MgCl2, or ATP at 37°C using a Tecan M200 plate reader (Atlantic lab equipment). Bile acids were dissolved either in ddH2O or in 100% DMSO (as stated in “Lipid, cholesterol and bile acid preparation”) at a concentration of 100 mM. […] In case of hydrophobic bile acids, which were dissolved in DMSO, DMSO concentration was adapted to 1% in all wells. […] After background correction, fluorescence data were analyzed using Prism (version 8, GraphPad) with Equation 4:(4) F=Fmax∗(c[BA]−cmc)/(K0.5−cmc)+(c[BA]−cmc)
The measured fluorescence at each bile acid concentration (c[BA]) is represented by F, while Fmax is the maximal fluorescence, K0.5 is the midpoint of the function, and cmc is the critical micelle concentration of the bile acid.

[4] = vmax of allosteric sigmoidal fit (Equation 1), read-out: Max. Stimulation (%)
[5] = basal = 0%, negative = inhibition, duplicates
[6] = vmax of allosteric sigmoidal fit (Equation 1)

T1 sequence (P21439 1-1279 isoform P21439-2): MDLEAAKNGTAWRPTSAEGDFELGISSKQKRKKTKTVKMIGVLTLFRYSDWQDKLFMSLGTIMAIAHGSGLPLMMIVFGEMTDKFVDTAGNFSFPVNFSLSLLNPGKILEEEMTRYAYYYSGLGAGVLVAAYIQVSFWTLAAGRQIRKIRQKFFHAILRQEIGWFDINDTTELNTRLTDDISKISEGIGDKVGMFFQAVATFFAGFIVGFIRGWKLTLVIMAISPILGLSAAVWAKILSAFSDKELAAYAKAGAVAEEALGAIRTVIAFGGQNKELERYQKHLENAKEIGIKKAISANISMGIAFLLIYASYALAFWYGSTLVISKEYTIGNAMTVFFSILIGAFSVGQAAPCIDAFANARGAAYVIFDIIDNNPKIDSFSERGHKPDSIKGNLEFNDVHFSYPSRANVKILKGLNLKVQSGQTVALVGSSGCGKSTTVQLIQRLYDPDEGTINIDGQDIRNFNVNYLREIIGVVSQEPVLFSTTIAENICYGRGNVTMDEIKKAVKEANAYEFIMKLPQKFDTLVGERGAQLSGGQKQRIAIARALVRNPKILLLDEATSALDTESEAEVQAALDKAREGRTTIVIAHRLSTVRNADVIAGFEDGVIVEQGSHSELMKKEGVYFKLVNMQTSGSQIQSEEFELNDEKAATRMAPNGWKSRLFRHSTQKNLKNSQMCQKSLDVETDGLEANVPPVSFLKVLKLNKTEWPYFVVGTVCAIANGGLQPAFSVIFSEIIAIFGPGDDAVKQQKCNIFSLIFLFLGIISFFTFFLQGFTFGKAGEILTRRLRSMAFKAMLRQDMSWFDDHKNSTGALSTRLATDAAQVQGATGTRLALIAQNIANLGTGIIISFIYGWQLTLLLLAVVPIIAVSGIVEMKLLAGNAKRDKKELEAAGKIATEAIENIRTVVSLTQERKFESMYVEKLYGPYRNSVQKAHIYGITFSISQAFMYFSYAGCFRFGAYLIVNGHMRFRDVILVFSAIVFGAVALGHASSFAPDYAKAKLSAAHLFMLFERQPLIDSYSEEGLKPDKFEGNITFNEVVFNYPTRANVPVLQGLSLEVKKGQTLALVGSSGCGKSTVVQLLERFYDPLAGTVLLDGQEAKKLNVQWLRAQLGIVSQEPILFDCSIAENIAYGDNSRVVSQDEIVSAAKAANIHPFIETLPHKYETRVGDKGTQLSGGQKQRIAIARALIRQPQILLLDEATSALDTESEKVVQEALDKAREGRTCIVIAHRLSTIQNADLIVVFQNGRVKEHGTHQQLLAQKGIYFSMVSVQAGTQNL

Compound | Emax (human ABCB4 [1]; [4]) | activity at 1000 µM (human ABCB4 [2]; DOPC alone set to 100%) | Critical micelle concentration (cmc) [3] | Slope (human ABCB4 [1]) | EC50 (human ABCB4 [1]; read-out: EC50) | Concentration at which maximal stimulation (plateau) of ATPase activity is reached (human ABCB4 [1]) | other results
C[C@H](CCC(=O)O)[C@H]1CC[C@H]2[C@@H]3[C@H](O)C[C@@H]4C[C@H](O)CC[C@]4(C)[C@H]3C[C@H](O)[C@]12C [CA, cholic acid] | 310 ± 16.4% | 117 ± 8.9% | 2.3 mM and 2.3 ± 0.2 mM | 2.8 ± 0.3 | 390 ± 22.7 µM | – | –
C[C@H](CCC(=O)NCCC[N+](C)(C)CCCS(=O)(=O)[O-])[C@H]1CC[C@H]2[C@@H]3[C@H](O)C[C@@H]4C[C@H](O)CC[C@]4(C)[C@H]3C[C@H](O)[C@]12C [CHAPS, 3-[(3-cholamidopropyl)dimethylammonio]-1-propanesulfonate] | – | – | – | 3.7 ± 2.1 | 151 ± 20.8 µM | 300 µM | Modulation of basal ATPase activity at 10 μM (human ABCB4 [1]; [5]): –7.1 ± 3.6%; Modulation of basal ATPase activity at 50 μM (human ABCB4 [1]; 50 μM, basal = 0%, negative = inhibition, duplicates): –9.9 ± 5.0%; Max. Stimulation (%) (human ABCB4 [1]; [6]): 142.6 ± 11.5%; Decrease of DOPC-stimulated ATPase activity (human ABCB4 [2]): approximately 50%; Relative ATPase activity in the presence of 300 μM DOPC (human ABCB4 [2]; DOPC alone set to 100%): 52.6 ± 6.5%
C[C@H](CCC(=O)NCCC[N+](C)(C)CC(O)CS(=O)(=O)[O-])[C@H]1CC[C@H]2[C@@H]3[C@H](O)C[C@@H]4C[C@H](O)CC[C@]4(C)[C@H]3C[C@H](O)[C@]12C (stereo partly shown) [CHAPSO, 3-[(3-cholamidopropyl)dimethylammonio]-2-hydroxy-1-propanesulfonate] | – | – | – | 4.3 ± 2.5 | 125 ± 23.3 µM | 300 µM | Modulation of basal ATPase activity at 10 μM (human ABCB4 [1]; [5]): –7.5 ± 8.6%; Max. Stimulation (%) (human ABCB4 [1]; [6]): 145.4 ± 15.3%; Decrease of DOPC-stimulated ATPase activity (human ABCB4 [2]): approximately 50%; Relative ATPase activity in the presence of 300 μM DOPC (human ABCB4 [2]; DOPC alone set to 100%): 48.7 ± 3.0%
CC(C)CCC[C@@H](C)[C@H]1CC[C@H]2[C@@H]3CC=C4C[C@@H](O)CC[C@]4(C)[C@H]3CC[C@]12C [Cholesterol] | – | – | – | – | – | – | ATPase activity at cholesterol:DOPC ratio 1.5:1 (human ABCB4 [2]; 300 μM DOPC, DOPC alone set to 100%): 190.4 ± 9.4%; Emax (human ABCB4 [2]; 300 μM DOPC, DOPC alone set to 100%, cholesterol:DOPC ratios 1-2, read-out: Maximal stimulation of ATPase activity by cholesterol (vmax)): 204 ± 5.9%; ATPase activity at cholesterol:DOPC molar ratio 0.04 (human ABCB4 [2]; 300 μM DOPC, DOPC alone set to 100%, considered no stimulation): 119%; EC50 (human ABCB4 [2]; cholesterol mixed with 300 μM DOPC, molar ratios 0-3.3 (cholesterol to DOPC)): 210 µM; Slope (human ABCB4 [2]; cholesterol mixed with 300 μM DOPC, allosteric sigmoidal fit): 7.8 ± 2.2; Max. Stimulation (%) (human ABCB4 [2]; cholesterol mixed with 300 μM DOPC, stimulation in addition to DOPC stimulation): 103.5 ± 5.9%
CCCCCCCC/C=C\CCCCCCCC(=O)OC[C@H](COP(=O)([O-])OCC[N+](C)(C)C)OC(=O)CCCCCCC/C=C\CCCCCCCC [DOPC, 1,2-dioleoyl-sn-glycero-3-phosphocholine] | – | – | – | – | – | – | ATPase activity of nonlabeled protein (human ABCB4 [2]; presence of 300 μM DOPC, 5 μg protein): 488.6 ± 44.5 nmol/min/mg; Specific ATPase activity of ABCB4 (Bodipy-labeled activity subtracted) (human ABCB4 [2]; presence of 300 μM DOPC, basal 132.1 ± 13.0): 275.8 ± 24.8 nmol/min/mg; ATPase activity of ABCB4-Bodipy (Bodipy-labeled protein) (human ABCB4 [2]; with 300 μM DOPC, non-ABCB4-mediated background): 212.8 ± 19.7 nmol/min/mg
C[C@H](CCC(=O)NCC(=O)O)[C@H]1CC[C@H]2[C@@H]3[C@H](O)C[C@@H]4C[C@H](O)CC[C@]4(C)[C@H]3CC[C@]12C [GCDCA] | 223 ± 10% | 127 ± 2.8% | 2.6 mM and 2.6 ± 0.1 mM | 3.9 ± 1.5 | 77.8 ± 7.5 µM | approximately 150 μM | –
C[C@H](CCC(=O)NCCS(=O)(=O)O)[C@H]1CC[C@H]2[C@@H]3[C@H](O)C[C@@H]4C[C@H](O)CC[C@]4(C)[C@H]3C[C@H](O)[C@]12C [TCA, taurocholic acid] | – | – | 3.5 mM and 3.5 ± 0.1 mM | 2.6 ± 0.5 | – | approximately 400 μM | EC50 (human ABCB4 [1]; EC50 (μM)): 114 µM; Emax (human ABCB4 [1]; read-out: Max. Stimulation (%), vmax of allosteric sigmoidal fit (Equation 1)): 539 ± 24%

The next lines start with results.

Emax (human ABCB4 [1]; [4]) | activity at 1000 µM (human ABCB4 [2]; DOPC alone set to 100%) | Critical micelle concentration (cmc) [3] | Compound | Slope (human ABCB4 [1]) | EC50 (human ABCB4 [1]; read-out: EC50) | Concentration at which maximal stimulation (plateau) of ATPase activity is reached (human ABCB4 [1]) | other results
137 ± 16.8% | 89.7 ± 1.4% | 1.5 mM and 1.5 ± 0.1 mM | C[C@H](CCC(=O)O)[C@H]1CC[C@H]2[C@@H]3[C@H](O)C[C@@H]4C[C@H](O)CC[C@]4(C)[C@H]3CC[C@]12C [CDCA, chenodeoxycholic acid] | 1.8 ± 0.4 | 308 ± 56.8 µM | – | –
214 ± 13.3% | 100 ± 7.5% | 1.4 mM and 1.4 ± 0.1 mM | C[C@H](CCC(=O)O)[C@H]1CC[C@H]2[C@@H]3CC[C@@H]4C[C@H](O)CC[C@]4(C)[C@H]3C[C@H](O)[C@]12C [DCA, deoxycholic acid] | 2.6 ± 0.6 | 75 ± 7.3 µM | 300 µM | –
733 ± 24% | 171 ± 6.9% | 4.1 mM and 4.1 ± 0.1 mM | C[C@H](CCC(=O)NCC(=O)O)[C@H]1CC[C@H]2[C@@H]3[C@H](O)C[C@@H]4C[C@H](O)CC[C@]4(C)[C@H]3C[C@H](O)[C@]12C [GCA] | 2.9 ± 0.4 | 177 ± 9.9 µM | approximately 400 μM | –
– | – | Precipitate ^a | C[C@H](CCC(=O)O)[C@H]1CC[C@H]2[C@@H]3CC[C@@H]4C[C@H](O)CC[C@]4(C)[C@H]3CC[C@]12C [LCA, lithocholic acid] | – | – | – | –
